Experiments:
[1] = Malodor counteracting effect, scale of 0 to 5; details: 10% in water; scale of 0 to 5, 0=none, 1=minimal effect, 5=the highest possible effect
Procedure: (ii) Malodor counteracting effect was evaluated using a scale of 0 to 5, where 0=none, 1=minimal effect and 5=the highest possible effect. High coverage of mold/mildew and sweat malodors by Compounds 1-6 (10% in water) was reported in the following: […]

[2] = Percent Reduction of Malodor Intensity; details: 10% in water
From the text: (iii) Malodor counteracting effect of Compounds 1-6 (10% in water) was further evaluated and their respective “Percent Reduction of Malodor Intensity” was reported in the following: […]

Row | Compound | Malodor counteracting effect, Mold/Mildew [1] | Malodor counteracting effect, Sweat [1] | Percent Reduction of Malodor Intensity, Bathroom [2] | Percent Reduction of Malodor Intensity, Mold/Mildew [2] | Percent Reduction of Malodor Intensity, Smoke [2] | Percent Reduction of Malodor Intensity, Sweat [2]
1 | CCCCCCOC1CCC(C)(C)O1 (stereo not drawn) [Compound 4, 5-hexyloxy-2,2-dimethyl-tetrahydro-furan] | 4.27 | 4.53 | 83% | 74% | 76% | 79%
2 | COC1CCC(C(C)C)CC1 (stereo not drawn) [Compound 1, 1-methoxy-4-(methylethyl)-cyclohexane] | 4.62 | 4.51 | 92% | 88% | 84% | 83%
3 | CCOC1C(C)CCCC1C (stereo not drawn) [Compound 2, 2-ethoxy-1,3-dimethyl-cyclohexane] | 4.44 | 4.56 | 90% | 79% | 87% | 90%
4 | CC(C)CC1OC(C)CCC1C(C)CC=O (stereo not drawn) [Compound 3, 3-[6-methyl-2-(2-methylpropyl)tetrahydro-2H-pyran-3-yl]butanal] | 4.08 | 4.15 | 85% | 81% | 82% | 86%
5 | CC(C)C(C)C(C)C(C)O (stereo not drawn) [Compound 5, 3,4,5-trimethyl-hexan-2-ol] | 4.22 | 4.47 | 92% | 80% | 83% | 85%
6 | CC(=O)C(C)C(C)C(C)C (stereo not drawn) [Compound 6, 3,4,5-trimethyl-hexan-2-one] | 4.04 | 4.30 | 87% | 90% | 84% | 83%
